Our source for the Ki, inhibition and bioavailability values is ChEMBL document CHEMBL4038300, “Return of D4 Dopamine Receptor Antagonists in Drug Discovery” (J Med Chem, 2017).

The nature of data set [1]: Inhibition of human dopamine D4.4 receptor.
For data set [2], the target named is 5-hydroxytryptamine receptor 2A (Homo sapiens, UniProt P28223). As to the kind of experiment: Inhibition of serotonin 5-HT2 receptor (unknown origin). To be noted: concentration not given here.
Data set [3] has as its target 5-hydroxytryptamine receptor 2C (Homo sapiens) (UniProt P28335). As to the kind of experiment: Inhibition of serotonin 5-HT2C receptor (unknown origin). To be noted: concentration not given here.
For data set [4], the target named is Histamine H1 receptor (Homo sapiens, UniProt P35367). Put plainly: Inhibition of histamine H1 receptor (unknown origin). As to conditions: concentration not given here.
Chain of Histamine H1 receptor (P35367 whole entry): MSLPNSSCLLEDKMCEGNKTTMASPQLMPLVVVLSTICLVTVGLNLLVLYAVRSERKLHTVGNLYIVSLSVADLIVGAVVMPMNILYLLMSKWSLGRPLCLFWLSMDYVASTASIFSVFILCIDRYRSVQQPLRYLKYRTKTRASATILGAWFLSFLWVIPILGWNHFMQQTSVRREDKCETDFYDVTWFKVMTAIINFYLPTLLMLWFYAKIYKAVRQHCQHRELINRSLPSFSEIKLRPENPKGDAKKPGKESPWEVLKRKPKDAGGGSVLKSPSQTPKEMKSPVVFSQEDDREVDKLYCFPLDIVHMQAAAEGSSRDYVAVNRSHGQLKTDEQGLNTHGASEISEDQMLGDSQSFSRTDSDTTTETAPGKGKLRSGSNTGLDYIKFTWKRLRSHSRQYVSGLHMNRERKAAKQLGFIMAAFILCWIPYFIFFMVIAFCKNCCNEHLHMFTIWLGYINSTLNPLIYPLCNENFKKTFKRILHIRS
Data set [5] addresses Adrenergic receptor alpha-1 (Homo sapiens) (UniProt P35348+P25100+P35368). As to the kind of experiment: Inhibition of alpha1 adrenergic receptor (unknown origin). As to conditions: concentration not given here.
The target in data set [6] is Adrenergic receptor alpha-2 (Homo sapiens) (UniProt P08913+P18825+P18089). As to the kind of experiment: Inhibition of alpha2 adrenergic receptor (unknown origin). As to conditions: concentration not given here.
Data set [7] addresses Glutamate [NMDA] receptor (Homo sapiens) (UniProt Q05586+Q12879+Q13224+O15399+O60391+Q14957+Q8TCU5). Put plainly: Inhibition of NMDA receptor (unknown origin). To be noted: concentration not given here.
The target of data set [8] is Neuropeptide Y receptor type 1 (Homo sapiens) (UniProt P25929). Put plainly: Inhibition of NPY1 receptor (unknown origin). To be noted: concentration not given here.
Chain of Neuropeptide Y receptor type 1 (Homo sapiens) (P25929 whole entry): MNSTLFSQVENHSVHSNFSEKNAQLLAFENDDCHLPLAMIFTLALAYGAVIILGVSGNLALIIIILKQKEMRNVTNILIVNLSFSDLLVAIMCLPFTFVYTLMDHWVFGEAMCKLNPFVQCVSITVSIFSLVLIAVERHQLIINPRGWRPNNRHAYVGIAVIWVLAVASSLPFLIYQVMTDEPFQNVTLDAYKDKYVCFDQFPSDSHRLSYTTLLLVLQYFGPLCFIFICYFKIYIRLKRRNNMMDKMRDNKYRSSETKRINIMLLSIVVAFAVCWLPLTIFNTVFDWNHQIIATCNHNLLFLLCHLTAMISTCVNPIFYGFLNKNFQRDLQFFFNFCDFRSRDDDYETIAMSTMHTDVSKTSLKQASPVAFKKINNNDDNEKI
Data set [9] addresses Neuropeptide Y receptor type 2 (Homo sapiens) (UniProt P49146). Put plainly: Inhibition of NPY2 receptor (unknown origin). To be noted: concentration not given here.
The species entered for data set [10] is Homo sapiens. Put plainly: Inhibition of beta-adrenergic receptor (unknown origin). As to conditions: concentration not given here.
Data set [11] deals with Histamine H3 receptor (Homo sapiens) (UniProt Q9Y5N1). As to the kind of experiment: Inhibition of histamine H3 receptor (unknown origin). As to conditions: concentration not given here.
Chain of Histamine H3 receptor (Homo sapiens) (Q9Y5N1 whole entry): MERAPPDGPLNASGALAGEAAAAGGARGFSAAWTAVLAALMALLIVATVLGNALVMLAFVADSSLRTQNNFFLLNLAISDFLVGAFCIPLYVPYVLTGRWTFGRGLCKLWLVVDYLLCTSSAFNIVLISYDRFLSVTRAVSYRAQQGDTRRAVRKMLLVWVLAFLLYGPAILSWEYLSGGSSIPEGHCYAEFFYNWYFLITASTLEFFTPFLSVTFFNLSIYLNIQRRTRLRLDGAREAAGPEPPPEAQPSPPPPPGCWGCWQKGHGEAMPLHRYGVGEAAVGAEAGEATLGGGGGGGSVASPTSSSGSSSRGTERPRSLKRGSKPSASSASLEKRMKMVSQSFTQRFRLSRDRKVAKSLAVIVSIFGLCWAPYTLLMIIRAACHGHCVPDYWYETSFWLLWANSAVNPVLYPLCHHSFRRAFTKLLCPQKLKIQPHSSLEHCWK
The nature of data set [12]: Inhibition of human dopamine D4.2 receptor.
Data set [13] is described as follows: Inhibition of human dopamine D4.7 receptor.
The target in data set [14] is D(1A) dopamine receptor (Homo sapiens, UniProt P21728). Put plainly: Inhibition of dopamine D1 receptor (unknown origin) at 10 uM.
Chain of D(1A) dopamine receptor (P21728 whole entry): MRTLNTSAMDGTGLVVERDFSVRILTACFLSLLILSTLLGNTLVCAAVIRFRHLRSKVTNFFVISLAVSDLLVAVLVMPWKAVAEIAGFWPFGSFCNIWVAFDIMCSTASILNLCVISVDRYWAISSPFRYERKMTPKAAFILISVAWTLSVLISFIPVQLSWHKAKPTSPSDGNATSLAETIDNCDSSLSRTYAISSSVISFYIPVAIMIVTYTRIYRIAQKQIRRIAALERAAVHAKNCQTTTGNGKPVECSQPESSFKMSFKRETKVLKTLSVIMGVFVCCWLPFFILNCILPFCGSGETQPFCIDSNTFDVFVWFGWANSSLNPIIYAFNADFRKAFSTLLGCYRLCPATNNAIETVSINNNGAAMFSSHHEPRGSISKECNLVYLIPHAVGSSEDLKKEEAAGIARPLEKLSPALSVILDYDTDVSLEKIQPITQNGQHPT
In data set [15] the target is T1, D(3) dopamine receptor (Homo sapiens, UniProt P35462). As to the kind of experiment: Inhibition of dopamine D3 receptor (unknown origin) at 10 uM.
T1 sequence (P35462 whole entry): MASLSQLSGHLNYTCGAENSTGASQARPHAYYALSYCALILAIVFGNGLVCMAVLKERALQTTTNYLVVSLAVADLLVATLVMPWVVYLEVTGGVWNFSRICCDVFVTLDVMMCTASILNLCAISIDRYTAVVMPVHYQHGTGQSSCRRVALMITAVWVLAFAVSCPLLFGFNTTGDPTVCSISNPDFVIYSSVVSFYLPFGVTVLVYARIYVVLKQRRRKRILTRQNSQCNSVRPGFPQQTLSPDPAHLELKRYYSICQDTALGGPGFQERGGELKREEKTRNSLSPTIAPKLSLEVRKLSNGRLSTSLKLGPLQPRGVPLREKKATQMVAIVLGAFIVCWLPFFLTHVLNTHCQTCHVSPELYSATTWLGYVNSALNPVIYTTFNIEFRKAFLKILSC
Data set [16] deals with D(1B) dopamine receptor (Homo sapiens, UniProt P21918). Put plainly: Inhibition of dopamine D5 receptor (unknown origin) at 10 uM.
Chain of D(1B) dopamine receptor (P21918 whole entry): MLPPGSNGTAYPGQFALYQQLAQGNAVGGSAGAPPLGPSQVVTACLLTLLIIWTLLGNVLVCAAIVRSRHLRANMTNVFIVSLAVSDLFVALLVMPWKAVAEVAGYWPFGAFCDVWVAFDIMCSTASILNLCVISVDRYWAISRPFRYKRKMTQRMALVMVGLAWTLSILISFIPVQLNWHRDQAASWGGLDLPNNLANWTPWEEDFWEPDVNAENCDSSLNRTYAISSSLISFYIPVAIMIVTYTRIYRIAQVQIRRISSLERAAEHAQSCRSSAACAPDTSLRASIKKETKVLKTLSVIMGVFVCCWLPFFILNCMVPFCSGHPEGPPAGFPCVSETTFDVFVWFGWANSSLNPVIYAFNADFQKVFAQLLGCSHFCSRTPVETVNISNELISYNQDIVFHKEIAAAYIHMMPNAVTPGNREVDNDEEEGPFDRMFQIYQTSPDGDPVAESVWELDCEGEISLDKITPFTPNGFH
Data set [17] concerns the target D(2) dopamine receptor (Homo sapiens, UniProt P14416). As to the kind of experiment: Inhibition of human dopamine D2 receptor.
For data set [18], the target named is T1, D(3) dopamine receptor. Put plainly: Inhibition of human dopamine D3 receptor.
Data set [19] concerns the target T2, D(4) dopamine receptor (Homo sapiens, UniProt P21917).
T2 sequence (P21917 whole entry): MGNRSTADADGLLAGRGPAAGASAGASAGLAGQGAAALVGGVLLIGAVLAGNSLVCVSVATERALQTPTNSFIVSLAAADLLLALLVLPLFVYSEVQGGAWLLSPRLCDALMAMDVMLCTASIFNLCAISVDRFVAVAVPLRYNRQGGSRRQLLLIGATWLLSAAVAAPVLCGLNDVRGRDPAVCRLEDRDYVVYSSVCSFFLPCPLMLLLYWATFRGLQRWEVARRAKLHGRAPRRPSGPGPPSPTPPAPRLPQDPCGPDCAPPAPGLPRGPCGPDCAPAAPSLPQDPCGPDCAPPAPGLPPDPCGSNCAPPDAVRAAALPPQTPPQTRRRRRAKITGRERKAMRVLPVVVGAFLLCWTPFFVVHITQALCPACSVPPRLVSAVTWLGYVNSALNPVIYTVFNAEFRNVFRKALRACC
Put plainly: Inhibition of human dopamine D4 receptor.

Data set [20] is described as follows: Oral bioavailability in rat at 20 mg/kg. The data set is classed as ADME, organism-based. As to conditions: in vivo.

Where only a bound is given, the exact number is not on record here.

Chain of 5-hydroxytryptamine receptor 2A (P28223 whole entry): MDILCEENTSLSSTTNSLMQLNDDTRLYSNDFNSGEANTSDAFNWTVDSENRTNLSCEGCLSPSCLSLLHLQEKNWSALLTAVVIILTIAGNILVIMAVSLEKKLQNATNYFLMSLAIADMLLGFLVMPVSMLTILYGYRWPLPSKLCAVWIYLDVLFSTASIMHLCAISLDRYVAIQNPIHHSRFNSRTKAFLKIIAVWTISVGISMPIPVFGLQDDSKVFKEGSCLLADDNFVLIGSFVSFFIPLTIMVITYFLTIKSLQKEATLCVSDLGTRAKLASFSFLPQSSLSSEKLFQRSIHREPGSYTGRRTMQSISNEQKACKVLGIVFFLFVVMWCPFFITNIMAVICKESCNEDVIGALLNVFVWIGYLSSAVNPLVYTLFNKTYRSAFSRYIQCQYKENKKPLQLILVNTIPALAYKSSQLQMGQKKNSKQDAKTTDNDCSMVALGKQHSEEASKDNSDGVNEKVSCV
Chain of 5-hydroxytryptamine receptor 2C (Homo sapiens) (P28335 whole entry): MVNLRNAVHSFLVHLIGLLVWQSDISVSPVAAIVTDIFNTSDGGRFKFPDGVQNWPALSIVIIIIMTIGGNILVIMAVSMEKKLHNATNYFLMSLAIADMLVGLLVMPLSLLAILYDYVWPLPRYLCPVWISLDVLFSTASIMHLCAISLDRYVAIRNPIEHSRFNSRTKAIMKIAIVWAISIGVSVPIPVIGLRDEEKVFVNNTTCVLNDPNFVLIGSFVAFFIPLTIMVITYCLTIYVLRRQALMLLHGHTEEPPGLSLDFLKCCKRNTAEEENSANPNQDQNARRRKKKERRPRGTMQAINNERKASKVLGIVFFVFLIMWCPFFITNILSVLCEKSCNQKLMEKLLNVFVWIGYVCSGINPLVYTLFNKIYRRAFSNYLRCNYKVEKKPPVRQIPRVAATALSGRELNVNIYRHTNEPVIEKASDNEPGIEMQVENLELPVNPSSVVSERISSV
Chain of Neuropeptide Y receptor type 2 (Homo sapiens) (P49146 whole entry): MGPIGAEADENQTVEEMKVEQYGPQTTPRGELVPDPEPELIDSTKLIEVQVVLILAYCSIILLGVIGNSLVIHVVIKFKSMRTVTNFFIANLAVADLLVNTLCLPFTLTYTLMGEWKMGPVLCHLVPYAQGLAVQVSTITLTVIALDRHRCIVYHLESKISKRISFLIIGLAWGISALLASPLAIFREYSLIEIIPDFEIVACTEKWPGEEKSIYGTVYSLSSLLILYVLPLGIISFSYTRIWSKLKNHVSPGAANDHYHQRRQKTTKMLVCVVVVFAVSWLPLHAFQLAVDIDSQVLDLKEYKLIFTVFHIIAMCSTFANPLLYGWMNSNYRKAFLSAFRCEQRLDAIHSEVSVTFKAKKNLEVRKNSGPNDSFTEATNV
Chain of D(2) dopamine receptor (P14416 whole entry): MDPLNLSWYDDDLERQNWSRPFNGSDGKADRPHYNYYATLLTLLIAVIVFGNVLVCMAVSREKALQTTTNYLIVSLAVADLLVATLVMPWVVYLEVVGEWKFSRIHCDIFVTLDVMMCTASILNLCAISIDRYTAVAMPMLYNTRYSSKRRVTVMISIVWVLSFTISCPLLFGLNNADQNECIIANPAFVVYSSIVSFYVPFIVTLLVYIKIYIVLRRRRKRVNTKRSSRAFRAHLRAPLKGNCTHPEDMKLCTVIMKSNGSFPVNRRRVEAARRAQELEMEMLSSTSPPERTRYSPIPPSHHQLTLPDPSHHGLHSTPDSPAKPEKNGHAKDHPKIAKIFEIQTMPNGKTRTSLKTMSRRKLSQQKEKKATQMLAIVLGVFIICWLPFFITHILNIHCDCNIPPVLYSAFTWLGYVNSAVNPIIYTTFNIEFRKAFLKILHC

`c1ccc(-c2nc(CN3CCN(c4ncccn4)CC3)c[nH]2)cc1`: the figures for the Ki in data set [1], in data set [12] and in data set [13] were 2.2 nM, 4.2 nM and 2.1 nM, respectively. Moreover, the inhibition in [2], in data set [3], in [4], in data set [5], in data set [6] and in data set [7] was less than 50% throughout. Further, the inhibition in data set [8], in [9], in [10], in [11], in [14] and in data set [15] was less than 50% throughout. This molecule had an inhibition in [16] of less than 50%.

As for `c1ccc(OCC2CN(Cc3c[nH]c4ccccc34)CCO2)cc1` (stereo not given), the Ki was found to be 400 nM in [17], 1480 nM in data set [18] and 5.6 nM in data set [19]. Moreover, the bioavailability in [20] is greater than 40%.
